# Measurements published in patent US12077503B2, “Substituted cyclic amides and their use as herbicides” (FMC CORPORATION, priority 2015, dated 2024).
# Legend:
# Assay type in all cases: in vivo
# rice (Oryra sativa) = assay: Test B flooded paddy test; conditions: Oryza sativa, 250 g ai/ha, Flood; 0 to 100 scale where 0 is no effect and 100 is complete control; read-out: Rice plant response rating
# In short: (§1)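 Percent control, visually estimated after 13–15 d in the greenhouse on a 0–100 basis, compares treated pots with untreated ones; compound was put into paddy water 3 cm above the soil when plants had two leaves.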
# [1] = system: barnyardgrass (Echinochloa crus-galli); assay: Test B flooded paddy test; conditions: Echinochloa crus-galli, 250 g ai/ha, Flood; 0 to 100 scale where 0 is no effect and 100 is complete control; read-out: Barnyardgrass plant response rating
# In short: as §1
# [2] = system: ducksalad (Heteranthera limosa); assay: Test B flooded paddy test; conditions: Heteranthera limosa, 250 g ai/ha, Flood; 0 to 100 scale where 0 is no effect and 100 is complete control; read-out: Ducksalad plant response rating
# In short: as §1
# [3] = system: sedge, umbrella (small-flower umbrella sedge, Cyperus difformis); assay: Test B flooded paddy test; conditions: Cyperus difformis, 250 g ai/ha, Flood; 0 to 100 scale where 0 is no effect and 100 is complete control; read-out: Sedge, Umbrella plant response rating
# In short: as §1
# Kochia (Kochia scoparia) [4] = assay: Test A preemergence; conditions: Bassia scoparia, pre-emergence, 240 h, 0 to 100 scale where 0 is no effect and 100 is complete control, read-out: Kochia plant response rating; for pest or weed control at 31 g/ha: 31 g ai/ha, Preemergence; for pest or weed control at 125 g/ha: 125 g ai/ha, preemergence, approx. 10 d
# In short: (§2)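 Treatment is preemergence as a directed soil spray after planting, or postemergence at the one- to two-leaf stage, with test chemical in a non-phytotoxic solvent mixture plus surfactant. Plants stay in the greenhouse about 10 d before visual injury scoring on a 0 to 100 scale versus untreated controls.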
# [5] = system: pigweed (Amaranthus retroflexus); assay: Test A preemergence; conditions: Amaranthus retroflexus, pre-emergence, 240 h, 0 to 100 scale where 0 is no effect and 100 is complete control, read-out: Pigweed plant response rating; for pest or weed control at 31 g/ha: 31 g ai/ha, Preemergence; for pest or weed control at 125 g/ha: 125 g ai/ha, preemergence, approx. 10 d
# [6] = system: giant foxtail (Setaria faberii); assay: Test A preemergence; conditions: Setaria faberi, pre-emergence, 240 h, 0 to 100 scale where 0 is no effect and 100 is complete control, read-out: Foxtail, Giant plant response rating; for pest or weed control at 31 g/ha: 31 g ai/ha, Preemergence; for pest or weed control at 125 g/ha: 125 g ai/ha, preemergence, approx. 10 d
# In short: as §2
# [7] = system: ryegrass, Italian (Italian ryegrass, Lolium multiflorum); assay: Test A preemergence; conditions: Lolium multiflorum, pre-emergence, 240 h, 0 to 100 scale where 0 is no effect and 100 is complete control, read-out: Ryegrass, Italian plant response rating; for pest or weed control at 31 g/ha: 31 g ai/ha, Preemergence; for pest or weed control at 125 g/ha: 125 g ai/ha, preemergence, approx. 10 d
# In short: as §2
# [8] = system: barnyardgrass (Echinochloa crus-galli); assay: Test A preemergence; conditions: Echinochloa crus-galli, pre-emergence, 240 h, 0 to 100 scale where 0 is no effect and 100 is complete control, read-out: Barnyardgrass plant response rating; for pest or weed control at 31 g/ha: 31 g ai/ha, Preemergence; for pest or weed control at 125 g/ha: 125 g ai/ha, preemergence, approx. 10 d
# In short: as §2
# [9] = system: ragweed (common ragweed, Ambrosia elatior); assay: Test A preemergence; conditions: Ambrosia artemisiifolia, pre-emergence, 240 h, 0 to 100 scale where 0 is no effect and 100 is complete control, read-out: Ragweed plant response rating; for pest or weed control at 31 g/ha: 31 g ai/ha, Preemergence; for pest or weed control at 125 g/ha: 125 g ai/ha, preemergence, approx. 10 d
# In short: as §2
# [10] = system: blackgrass (Alopecurus myosuroides); assay: Test A postemergence; conditions: Alopecurus myosuroides, post-emergence, 240 h; for pest or weed control at 125 g/ha: 125 g ai/ha, postemergence, visual injury on 0 to 100 scale (0 no effect, 100 complete control), approx. 10 d, read-out: Blackgrass plant response rating; for pest or weed control at 31 g/ha: Postemergence, 31 g ai/ha, visual injury after approx. 10 d, 0 to 100 scale, 0 no effect, 100 complete control, read-out: Plant response rating, Blackgrass
# In short: as §2
# Kochia (Kochia scoparia) [11] = assay: Test A postemergence; conditions: Bassia scoparia, post-emergence, 240 h; for pest or weed control at 125 g/ha: 125 g ai/ha, postemergence, visual injury on 0 to 100 scale (0 no effect, 100 complete control), approx. 10 d, read-out: Kochia plant response rating; for pest or weed control at 31 g/ha: Postemergence, 31 g ai/ha, visual injury after approx. 10 d, 0 to 100 scale, 0 no effect, 100 complete control, read-out: Plant response rating, Kochia
# In short: as §2
# [12] = system: pigweed (Amaranthus retroflexus); assay: Test A postemergence; conditions: Amaranthus retroflexus, post-emergence, 240 h; for pest or weed control at 125 g/ha: 125 g ai/ha, postemergence, visual injury vs untreated controls after approx. 10 d, 0 = no effect, 100 = complete control, read-out: Pigweed plant response rating (0 to 100 scale); for pest or weed control at 31 g/ha: Postemergence, 31 g ai/ha, visual injury after approx. 10 d, 0 to 100 scale, 0 no effect, 100 complete control, read-out: Plant response rating, Pigweed
# In short: as §2
# [13] = system: giant foxtail (Setaria faberii); assay: Test A postemergence; conditions: Setaria faberi, post-emergence, 240 h; for pest or weed control at 125 g/ha: 125 g ai/ha, postemergence, visual injury on 0 to 100 scale (0 no effect, 100 complete control), approx. 10 d, read-out: Foxtail, Giant plant response rating; for pest or weed control at 31 g/ha: Postemergence, 31 g ai/ha, visual injury after approx. 10 d, 0 to 100 scale, 0 no effect, 100 complete control, read-out: Plant response rating, Foxtail, Giant
# In short: as §2
# [14] = system: ryegrass, Italian (Italian ryegrass, Lolium multiflorum); assay: Test A postemergence; conditions: Lolium multiflorum, post-emergence, 240 h; for pest or weed control at 125 g/ha: 125 g ai/ha, postemergence, visual injury vs untreated controls after approx. 10 d, 0 = no effect, 100 = complete control, read-out: Ryegrass, Italian plant response rating (0 to 100 scale); for pest or weed control at 31 g/ha: Postemergence, 31 g ai/ha, visual injury after approx. 10 d, 0 to 100 scale, 0 no effect, 100 complete control, read-out: Plant response rating, Ryegrass, Italian
# In short: as §2
# [15] = system: wheat (Triticum aestivum); assay: Test A postemergence; conditions: Triticum aestivum, post-emergence, 240 h; for plant injury at 125 g/ha: 125 g ai/ha, postemergence, visual injury vs untreated controls after approx. 10 d, 0 = no effect, 100 = complete control, read-out: Wheat plant response rating (0 to 100 scale); for plant injury at 31 g/ha: Postemergence, 31 g ai/ha, visual injury after approx. 10 d, 0 to 100 scale, 0 no effect, 100 complete control, read-out: Plant response rating, Wheat
# In short: as §2
# [16] = system: barnyardgrass (Echinochloa crus-galli); assay: Test A postemergence; conditions: Echinochloa crus-galli, post-emergence, 240 h; for pest or weed control at 125 g/ha: 125 g ai/ha, postemergence, visual injury on 0 to 100 scale (0 no effect, 100 complete control), approx. 10 d, read-out: Barnyardgrass plant response rating; for pest or weed control at 31 g/ha: Postemergence, 31 g ai/ha, visual injury after approx. 10 d, 0 to 100 scale, 0 no effect, 100 complete control, read-out: Plant response rating, Barnyardgrass
# In short: as §2
# corn (Zea mays) = assay: Test A postemergence; conditions: Zea mays, post-emergence, 240 h; for plant injury at 125 g/ha: 125 g ai/ha, postemergence, visual injury on 0 to 100 scale (0 no effect, 100 complete control), approx. 10 d, read-out: Corn plant response rating; for Corn plant response rating (crop injury, 0 = no effect, 100 = complete kill) at 31 g/ha: Postemergence, 31 g ai/ha, visual injury after approx. 10 d, 0 to 100 scale, 100 complete control
# In short: as §2
# [17] = system: ragweed (common ragweed, Ambrosia elatior); assay: Test A postemergence; conditions: Ambrosia artemisiifolia, post-emergence, 240 h; for pest or weed control at 125 g/ha: 125 g ai/ha, postemergence, visual injury vs untreated controls after approx. 10 d, 0 = no effect, 100 = complete control, read-out: Ragweed plant response rating (0 to 100 scale); for pest or weed control at 31 g/ha: Postemergence, 31 g ai/ha, visual injury after approx. 10 d, 0 to 100 scale, 0 no effect, 100 complete control, read-out: Plant response rating, Ragweed
# In short: as §2
# [18] = system: Galium (catchweed bedstraw, Galium aparine); assay: Test A postemergence; conditions: Galium, post-emergence, 240 h; for pest or weed control at 125 g/ha: 125 g ai/ha, postemergence, visual injury on 0 to 100 scale (0 no effect, 100 complete control), approx. 10 d, read-out: Galium plant response rating; for pest or weed control at 31 g/ha: Postemergence, 31 g ai/ha, visual injury after approx. 10 d, 0 to 100 scale, 0 no effect, 100 complete control, read-out: Plant response rating, Galium
# In short: as §2
SMILES,pest or weed control at 250 g/ha (rice (Oryra sativa)) [%],pest or weed control at 250 g/ha [1] [%],pest or weed control at 250 g/ha [2] [%],pest or weed control at 250 g/ha [3] [%],pest or weed control at 31 g/ha (Kochia (Kochia scoparia) [4]) [%],pest or weed control at 125 g/ha (Kochia (Kochia scoparia) [4]) [%],pest or weed control at 31 g/ha [5] [%],pest or weed control at 125 g/ha [5] [%],pest or weed control at 31 g/ha [6] [%],pest or weed control at 125 g/ha [6] [%],pest or weed control at 31 g/ha [7] [%],pest or weed control at 125 g/ha [7] [%],pest or weed control at 31 g/ha [8] [%],pest or weed control at 125 g/ha [8] [%],pest or weed control at 31 g/ha [9] [%],pest or weed control at 125 g/ha [9] [%],pest or weed control at 125 g/ha [10] [%],pest or weed control at 31 g/ha [10] [%],pest or weed control at 125 g/ha (Kochia (Kochia scoparia) [11]) [%],pest or weed control at 31 g/ha (Kochia (Kochia scoparia) [11]) [%],further results
CN1C[C@H](c2ccc(Cl)cc2)[C@@H](C(=O)Nc2ccc(F)c(F)c2F)C1=O [Compound 1144],20,85,100,0,50,60,30,80,90,90,50,50,90,90,0,20,40,0,70,50,"pest or weed control at 125 g/ha [12]: 30%; pest or weed control at 31 g/ha [12]: 0%; pest or weed control at 125 g/ha [13]: 90%; pest or weed control at 31 g/ha [13]: 80%; pest or weed control at 125 g/ha [14]: 60%; pest or weed control at 31 g/ha [14]: 30%; plant injury at 125 g/ha [15]: 50%; plant injury at 31 g/ha [15]: 30%; pest or weed control at 125 g/ha [16]: 90%; pest or weed control at 31 g/ha [16]: 90%; plant injury at 125 g/ha (corn (Zea mays)): 50%; Corn plant response rating (crop injury, 0 = no effect, 100 = complete kill) at 31 g/ha (corn (Zea mays)): 20%; pest or weed control at 125 g/ha [17]: 70%; pest or weed control at 31 g/ha [17]: 20%; pest or weed control at 125 g/ha [18]: 40%; pest or weed control at 31 g/ha [18]: 0%"
C=C(C)c1ccc([C@H]2CN(C)C(=O)[C@@H]2C(=O)Nc2cccc(F)c2C)cc1 [Compound 1150],0,0,0,0,0,0,0,0,30,90,0,0,0,70,0,0,0,0,20,0,"pest or weed control at 125 g/ha [12]: 0%; pest or weed control at 31 g/ha [12]: 0%; pest or weed control at 125 g/ha [13]: 50%; pest or weed control at 31 g/ha [13]: 0%; pest or weed control at 125 g/ha [14]: 0%; pest or weed control at 31 g/ha [14]: 0%; plant injury at 125 g/ha [15]: 0%; plant injury at 31 g/ha [15]: 0%; pest or weed control at 125 g/ha [16]: 40%; pest or weed control at 31 g/ha [16]: 0%; plant injury at 125 g/ha (corn (Zea mays)): 20%; Corn plant response rating (crop injury, 0 = no effect, 100 = complete kill) at 31 g/ha (corn (Zea mays)): 0%; pest or weed control at 125 g/ha [17]: 0%; pest or weed control at 31 g/ha [17]: 0%; pest or weed control at 125 g/ha [18]: 20%; pest or weed control at 31 g/ha [18]: 0%"
